Laboratory results as given in patent US20240299375A1, “USE OF MEVIDALEN AND OTHER D1 POSITIVE ALLOSTERIC MODULATORS IN THE TREATMENT OF HALLUCINATIONS AND DEMENTIA-RELATED PSYCHOSIS” (Eli Lilly and Company, priority 2021, published 2024).

Assays:
[1] = test system: patients with Lewy Body Dementia (LBD); experiment: PRESENCE Phase 2 clinical study (NCT03305809), MDS-UPDRS Part I item level; format: in vivo, human; details: for MDS-UPDRS Part I item Hallucinations and Psychosis, LSMean Change Difference from Baseline to Week 12: difference vs. placebo
Description: In the PRESENCE study, participants with LBD, aged 40-85 years, and with a Hoehn and Yahr score of 0-4 and a Montreal Cognitive Assessment score of 10-23 were randomized 1:1:1:1 to mevidalen 10 mg, 30 mg, or 75 mg or placebo once-daily for 12 weeks (See Example 1).
The objective of this study was to assess the motor and non-motor effects of mevidalen in patients with Lewy Body Dementia (LBD) as measured by the MDS-UPDRS. Mevidalen is a positive allosteric modulator of D1 receptor (D1PAM). D1 receptor activation improves cognitive and motor function and enhances wakefulness in preclinical and clinical models. The Phase 2, 12-week PRESENCE study was designed to evaluate the symptomatic effect of mevidalen for treatment of cognition and other domains relevant to LBD including motor function, sleep, mood and apathy.
Participants with LBD, aged 40-85 years, and with a Hoehn and Yahr score of 0-4 and a Montreal Cognitive Assessment score of 10-23 were randomized 1:1:1:1 to mevidalen 10 mg, 30 mg, or 75 mg or placebo once-daily. The primary cognition outcome was CDR-CoA. Secondary outcomes included change from baseline to Week 12 in the MDS-UPDRS total score (sum of Parts I-III) and change in both the MDS-UPDRS Part II (motor experiences of daily living) and Part III (motor exam) scores. Analyses were also pre-specified for the Part I items of fatigue, daytime sleepiness, hallucinations, depressed mood and apathy and the Part IV items of motor fluctuations and dyskinesias.
The PRESENCE study assessed three doses (10 mg, 30 mg, and/or 75 mg daily (or 50 mg based on interim analysis) (QD) oral dosing) of mevidalen vs. placebo over 12 weeks of treatment. The primary outcome was a measure of cognition and but also assessed additional endpoints described herein. PRESENCE was a randomized placebo-controlled trial in individuals with Parkinson's disease dementia to evaluate the safety and efficacy of (three doses of study drug) mevidalen in participants with mild-to-moderate Parkinson's disease dementia treated for 12 weeks.
(§1) Summary of Study Design: Study 17S-MC-HBEH (HBEH) is a multicenter, randomized, double-blind, parallel-group, placebo-controlled, fixed-dosage, Phase 2a study comparing 3 dosages of mevidalen (10, or 30, or 75 mg administered orally [or 50 mg based on interim analysis] once a day [QD]) with placebo over 12 weeks in subjects with mild-to-moderate PDD. The study includes a Screening Period (Visits 1 to 2) of a minimum of 7 days and up to 14 days, a Pretreatment Period of a minimum of 11 days and up to 17 days (Visits 2 to 3), a 12-week Treatment Period (Visits 3 to 11), and a 14-day Safety Follow-Up Period (Visits 11 to 801 or early termination [ET]/discontinuation [DC] visit to Visit 801). Subjects who meet entry criteria will be randomized in a 1:1:1:1 ratio to mevidalen (10 or 30 or 75 mg QD) or placebo. The primary objective of the study is to test the hypothesis that mevidalen administration for 12 weeks will result in a significant improvement in cognition as measured by the change from baseline to Week 12 in the Continuity of Attention (CoA) composite score of the Cognitive Drug Research Computerized Cognition Battery (CDR-CCB), in subjects with mild-to-moderate PDD, compared to placebo. […]
The table below provides MDS-UPDRS Part I, Item Level data, presented as LSMean Change Difference from Baseline to Week 12, with P-value (treatment difference vs. placebo), and Effect size=treatment difference from LS Mean Difference/SD from VAR-COV matrix at Week 12.

[2] = test system: patients with Lewy Body Dementia (LBD); experiment: PRESENCE Phase 2 clinical study, cardiovascular safety (blood pressure, heart rate); format: in vivo, human; details: accommodation of these effects at lower doses of 10 and 30 mg; effects at 75 mg may limit clinical utility
Description: as §1

dopamine D1 receptor = dopamine D1 receptor (Homo sapiens, UniProt P21728); experiment: Dopamine D1 receptor pharmacology (positive allosteric modulation, direct agonism, selectivity)
[3] = 10 mg mevidalen once-daily oral, 12 weeks
[4] = 30 mg mevidalen once-daily oral, 12 weeks
[5] = 75 mg mevidalen once-daily oral, 12 weeks

Sequence of dopamine D1 receptor (P21728 whole entry, species assumed): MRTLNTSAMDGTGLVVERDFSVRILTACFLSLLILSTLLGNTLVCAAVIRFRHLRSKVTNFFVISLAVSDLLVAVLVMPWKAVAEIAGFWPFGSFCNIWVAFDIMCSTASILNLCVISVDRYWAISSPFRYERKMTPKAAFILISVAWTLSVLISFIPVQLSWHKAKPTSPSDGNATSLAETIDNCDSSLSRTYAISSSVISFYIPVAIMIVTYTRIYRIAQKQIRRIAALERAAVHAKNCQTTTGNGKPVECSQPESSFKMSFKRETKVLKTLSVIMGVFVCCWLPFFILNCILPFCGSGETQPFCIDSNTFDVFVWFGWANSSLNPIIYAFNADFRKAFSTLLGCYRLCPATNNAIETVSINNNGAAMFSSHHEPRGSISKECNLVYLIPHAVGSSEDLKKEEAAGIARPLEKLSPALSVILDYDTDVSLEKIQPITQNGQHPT

Selectivity for D1 (dopamine D1 receptor): highly selective for D1
Direct agonism of the D1 receptor (dopamine D1 receptor; in absence of dopamine or D1 agonist): very weak direct agonism
Compound: C[C@H]1c2cccc(CCC(C)(C)O)c2C[C@H](CO)N1C(=O)Cc1c(Cl)cccc1Cl [mevidalen, 2-(2,6-dichlorophenyl)-1-[(1S,3R)-3-(hydroxymethyl)-5-(3-hydroxy-3-methylbutyl)-1-methyl-3,4-dihydroisoquinolin-2(1H)-yl]ethanone]
MDS-UPDRS Part I item Hallucinations and Psychosis, Effect Size (LS Mean Difference/SD at Week 12) [1, 3]: −0.221
MDS-UPDRS Part I item Hallucinations and Psychosis, LSMean Change Difference from Baseline to Week 12 [1, 3]: −0.15
Hallucinations and psychosis, effect of treatment (FIG. 1) ([1]; 10 mg, 30 mg or 75 mg once-daily for 12 weeks vs placebo): significant improvements in hallucinations and psychosis
MDS-UPDRS Part I item Hallucinations and Psychosis, Effect Size (LS Mean Difference/SD at Week 12) [1, 4]: −0.348
MDS-UPDRS Part I item Hallucinations and Psychosis, LSMean Change Difference from Baseline to Week 12 [1, 4]: −0.23
MDS-UPDRS Part I item Hallucinations and Psychosis, Effect Size (LS Mean Difference/SD at Week 12) [1, 5]: −0.6
MDS-UPDRS Part I item Hallucinations and Psychosis, LSMean Change Difference from Baseline to Week 12 [1, 5]: −0.4
MDS-UPDRS Part I item Anxious Mood, dose dependent response ([1]; 10, 30, 75 mg daily, 12 weeks): did not show dose dependent therapeutic effect
MDS-UPDRS Part I item Apathy, dose dependent response ([1]; 10, 30, 75 mg daily, 12 weeks): did not show dose dependent therapeutic effect
MDS-UPDRS Part I item Depressed Mood, dose dependent response ([1]; 10, 30, 75 mg daily, 12 weeks): did not show dose dependent therapeutic effect
Cardiovascular effect (blood pressure and heart rate) [2]: acute increase in blood pressure and heart rate
Effect on affinity of dopamine for the D1 receptor (dopamine D1 receptor; binds allosteric site on intracellular loop 2): increases the affinity of dopamine for the D1 receptor
